According to US20230002397A1, “SMALL MOLECULE DEGRADERS OF HELIOS AND METODS OF USE” (DANA-FARBER CANCER INSTITUTE, INC., priority 2019, published 2023):

Molecular target: T1, IKZF2 (Homo sapiens, UniProt Q96SW2+Q9UKS7)
T1 construct: CRISPR/Cas9—mediated insertion of the HiBiT peptide tag (Promega™) to the N-terminus of the IKZF2 gene locus; endogenous in cells; host or cells: MOLT4 cells, with CRISPR/Cas9 knock-in of HiBiT at the endogenous IKZF2 locus
Assay: HiBit-IKZF2 assay (HiBiT-Helios degradation in MOLT4 cells)
Assay type: cell-based
Details: for Dmax: MOLT-4, extent of degradation from highest to lowest concentration, 10 μM to 0.00026 μM, read-out: Dmax; for DC50: concentration at which 50% of HiBiT-Helios degradation was achieved
Procedure: The HiBiT protein tagging system was applied to MOLT4 cells via a CRISPR/Cas9—mediated insertion of the HiBiT peptide tag (Promega™) to the N-terminus of the IKZF2 gene locus (Neon™ Transfection System). The resulting HiBiT-Helios stable cell line was treated with the following compounds in triplicates following a 13-point concentration scheme ranging from 10 μM to 0.00026 μM. At the indicated timepoints, the Nano-Glo® HiBiT Lytic Detection System (Promega™) was utilized for detecting bioluminescence of the HiBiT tag in treated cells: abundance of the tag is proportionate to the level of luminescence. Following normalization to DMSO, dose-response curves were plotted (GraphPad Prism) to determine the concentration points at which 50% of HiBiT-Helios degradation was achieved by each compound. The extent of degradation (range of luminescence) from the highest to lowest concentration points was calculated to determine the Dmax.

T1 sequence (Q9UKS7 whole entry): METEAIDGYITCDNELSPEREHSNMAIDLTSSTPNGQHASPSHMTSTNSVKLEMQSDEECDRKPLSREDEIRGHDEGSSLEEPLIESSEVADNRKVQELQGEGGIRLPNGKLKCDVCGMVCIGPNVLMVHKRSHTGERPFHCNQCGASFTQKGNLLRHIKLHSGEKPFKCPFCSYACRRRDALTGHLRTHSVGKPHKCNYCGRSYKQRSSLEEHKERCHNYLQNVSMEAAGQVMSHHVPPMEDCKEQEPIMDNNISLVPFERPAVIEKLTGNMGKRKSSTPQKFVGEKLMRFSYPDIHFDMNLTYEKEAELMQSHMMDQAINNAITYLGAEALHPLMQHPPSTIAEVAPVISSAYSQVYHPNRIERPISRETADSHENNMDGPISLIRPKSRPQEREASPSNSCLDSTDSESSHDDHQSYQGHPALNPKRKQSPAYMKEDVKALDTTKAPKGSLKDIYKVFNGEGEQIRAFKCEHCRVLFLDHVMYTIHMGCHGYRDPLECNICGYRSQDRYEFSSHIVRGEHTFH
T1 sequence (Q96SW2 whole entry): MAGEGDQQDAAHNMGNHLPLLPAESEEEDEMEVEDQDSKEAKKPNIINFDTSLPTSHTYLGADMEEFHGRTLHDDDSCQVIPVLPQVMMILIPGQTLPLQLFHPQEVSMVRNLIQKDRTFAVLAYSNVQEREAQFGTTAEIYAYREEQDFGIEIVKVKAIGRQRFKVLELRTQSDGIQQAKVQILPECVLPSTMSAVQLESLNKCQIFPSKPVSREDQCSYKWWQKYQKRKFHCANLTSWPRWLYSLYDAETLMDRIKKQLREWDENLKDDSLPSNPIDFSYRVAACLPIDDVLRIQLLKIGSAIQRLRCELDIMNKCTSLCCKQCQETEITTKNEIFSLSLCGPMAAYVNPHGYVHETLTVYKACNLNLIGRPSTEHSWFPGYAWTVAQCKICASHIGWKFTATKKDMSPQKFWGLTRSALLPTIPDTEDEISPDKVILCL
T1 sequence (Q16531 whole entry partner): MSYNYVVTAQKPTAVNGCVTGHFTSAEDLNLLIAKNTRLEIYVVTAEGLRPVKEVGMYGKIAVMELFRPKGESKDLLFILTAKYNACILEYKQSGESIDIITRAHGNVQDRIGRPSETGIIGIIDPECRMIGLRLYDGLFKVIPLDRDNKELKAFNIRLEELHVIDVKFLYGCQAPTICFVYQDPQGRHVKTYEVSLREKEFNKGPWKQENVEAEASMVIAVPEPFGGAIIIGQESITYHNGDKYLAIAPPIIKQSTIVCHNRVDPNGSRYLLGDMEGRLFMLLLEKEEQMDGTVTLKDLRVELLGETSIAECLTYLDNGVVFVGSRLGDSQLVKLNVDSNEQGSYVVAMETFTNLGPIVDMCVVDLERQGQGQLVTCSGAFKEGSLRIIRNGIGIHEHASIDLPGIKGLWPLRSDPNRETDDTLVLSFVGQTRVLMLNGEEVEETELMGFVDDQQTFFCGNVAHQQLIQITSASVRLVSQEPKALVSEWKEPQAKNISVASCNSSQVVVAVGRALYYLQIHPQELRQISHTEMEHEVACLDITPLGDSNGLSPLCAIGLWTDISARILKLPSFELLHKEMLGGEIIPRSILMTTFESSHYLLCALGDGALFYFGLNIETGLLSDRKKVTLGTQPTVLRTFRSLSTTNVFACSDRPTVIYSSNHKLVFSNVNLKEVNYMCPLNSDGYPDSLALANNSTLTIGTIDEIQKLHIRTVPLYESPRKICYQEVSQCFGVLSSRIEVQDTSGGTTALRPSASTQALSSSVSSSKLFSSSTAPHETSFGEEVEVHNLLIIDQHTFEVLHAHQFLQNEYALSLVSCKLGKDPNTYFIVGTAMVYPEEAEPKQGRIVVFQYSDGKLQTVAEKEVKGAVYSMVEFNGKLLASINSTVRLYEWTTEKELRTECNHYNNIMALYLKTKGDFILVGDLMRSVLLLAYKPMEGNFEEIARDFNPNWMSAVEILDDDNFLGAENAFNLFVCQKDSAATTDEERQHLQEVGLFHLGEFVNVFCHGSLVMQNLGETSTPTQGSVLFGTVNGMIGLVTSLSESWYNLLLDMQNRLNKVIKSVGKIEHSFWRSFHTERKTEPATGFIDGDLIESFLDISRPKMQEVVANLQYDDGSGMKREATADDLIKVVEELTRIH

SMILES | Dmax | DC50
O=C1CCC(N2Cc3cc(C4CCN(Cc5cccc(S(=O)(=O)N6C7CCC6COC7)c5)CC4)ccc3C2=O)C(=O)N1 (stereo not drawn) [Compound 162] | 50 to 70% | < 10 nM
N#Cc1cccc(CN2CCC(O)(c3ccc4c(c3)CN(C3CCC(=O)NC3=O)C4=O)CC2)c1 (stereo not drawn) [Compound 238] | > 70% | < 10 nM
O=C1CCC(N2Cc3cc(C4CCN(Cc5cccc(N6CCC7(CC7)C6=O)c5)CC4)ccc3C2=O)C(=O)N1 (stereo not drawn) [Compound 10] | 30 to 50% | 10 to 30 nM
O=C1CCC(N2Cc3cc(C4(O)CCN(Cc5cccc6c5CCN(c5ccccn5)C6=O)CC4)ccc3C2=O)C(=O)N1 (stereo not drawn) [Compound 202] | 50 to 70% | < 10 nM
O=C1CCC(N2Cc3cc(C4CCN(Cc5cccc(Nc6ncccc6F)c5)CC4)ccc3C2=O)C(=O)N1 (stereo not drawn) [Compound 133] | 50 to 70% | < 10 nM
CN(c1cccc(CN2CCC(c3ccc4c(c3)CN(C3CCC(=O)NC3=O)C4=O)CC2)c1)c1ncccn1 (stereo not drawn) [Compound 232] | 50 to 70% | 10 to 30 nM
O=C1CCC(N2Cc3cc(C4(O)CCN(Cc5ccc6c(c5)C(=O)N(c5ccns5)C6)CC4)ccc3C2=O)C(=O)N1 (stereo not drawn) [Compound 225] | > 70% | < 10 nM
O=C1CCC(N2Cc3cc(C4(O)CCN(Cc5ccc6c(c5)C(=O)N(c5ccccc5)C6)CC4)ccc3C2=O)C(=O)N1 (stereo not drawn) [Compound 200, 3-(5-(4-hydroxy-1-((3-oxo-2-phenylisoindolin-5-yl)methyl)piperidin-4-yl)-1-oxoisoindolin-2-yl)piperidine-2,6-dione] | > 70% | < 10 nM
N#Cc1ccc(CN2CCC(c3ccc4c(c3)CN(C3CCC(=O)NC3=O)C4=O)CC2)nc1Nc1ccccc1 (stereo not drawn) [Compound 186] | 50 to 70% | 30 to 150 nM
O=C1CCC(N2Cc3cc(C4CCN(Cc5ccc(S(=O)(=O)Nc6ccccc6)cc5)CC4)ccc3C2=O)C(=O)N1 (stereo not drawn) [Compound 91] | 50 to 70% | < 10 nM
O=C1CCC(N2Cc3cc(C4CCN(Cc5cnc(Nc6ccccc6)nc5)CC4)ccc3C2=O)C(=O)N1 (stereo not drawn) [Compound 139] | 50 to 70% | 30 to 150 nM
O=C1CCC(N2Cc3cc(C4CCN(Cc5cccc(Nc6ccccn6)n5)CC4)ccc3C2=O)C(=O)N1 (stereo not drawn) [Compound 101] | 30 to 50% | 10 to 30 nM
O=C1CCC(N2Cc3cc(C4(O)CCN(Cc5ccc6ncccc6c5)CC4)ccc3C2=O)C(=O)N1 (stereo not drawn) [Compound 279] | > 70% | < 10 nM
O=C1CCC(N2Cc3cc(C4(O)CCN(Cc5ccc6ccccc6c5)CC4)ccc3C2=O)C(=O)N1 (stereo not drawn) [Compound 203] | > 70% | < 10 nM
O=C1CCC(N2Cc3cc(C4CCN(Cc5ccc6c(n5)C(=O)N(c5ccccc5)C6)CC4)ccc3C2=O)C(=O)N1 (stereo not drawn) [Compound 172] | 30 to 50% | 10 to 30 nM
O=C1CCC(N2Cc3cc(C4CCN(Cc5ccccc5Nc5ccccn5)CC4)ccc3C2=O)C(=O)N1 (stereo not drawn) [Compound 120] | 50 to 70% | 10 to 30 nM
O=C1CCC(N2Cc3cc(C4CCN(Cc5nccc(Nc6ccccn6)n5)CC4)ccc3C2=O)C(=O)N1 (stereo not drawn) [Compound 102] | 50 to 70% | 10 to 30 nM
O=C1CCC(N2Cc3cc(C4CCN(Cc5cccc(NC(=O)c6ccccc6)c5)CC4)ccc3C2=O)C(=O)N1 (stereo not drawn) [Compound 50] | 50 to 70% | 10 to 30 nM
O=C1CCC(N2Cc3cc(C4CCN(Cc5ccccc5)C(CO)C4)ccc3C2=O)C(=O)N1 (stereo not drawn) [Compound 212] | 50 to 70% | 30 to 150 nM
O=C1CCC(N2Cc3cc(C4(O)CCN(Cc5ccc6ncn(-c7ccccn7)c(=O)c6c5)CC4)ccc3C2=O)C(=O)N1 (stereo not drawn) [Compound 235] | > 70% | < 10 nM
O=C1CCC(N2Cc3cc(C4CCN(Cc5cccc(Nc6ccsn6)c5)CC4)ccc3C2=O)C(=O)N1 (stereo not drawn) [Compound 233] | 50 to 70% | 10 to 30 nM
O=C1CCC(N2Cc3cc(C4CCN(Cc5ccc6c(c5)C(=O)N(c5ccccc5)C6)CC4)ccc3C2=O)C(=O)N1 (stereo not drawn) [Compound 146, 3-(1-oxo-5-(1-((3-oxo-2-phenylisoindolin-5-yl)methyl)piperidin-4-yl)isoindolin-2-yl)piperidine-2,6-dione] | > 70% | 10 to 30 nM
O=C1CCC(N2Cc3cc(C4(O)CCN(Cc5cccc6scnc56)CC4)ccc3C2=O)C(=O)N1 (stereo not drawn) [Compound 241] | > 70% | < 10 nM
O=C1CCC(N2Cc3cc(C4CCN(Cc5ccc(N6CCCC6=O)cc5)CC4)ccc3C2=O)C(=O)N1 (stereo not drawn) [Compound 147] | 50 to 70% | 30 to 150 nM

SMILES | Dmax | DC50
O=C1CCC(N2Cc3cc(C4CCN(Cc5cccc(N6C(=O)Cc7ccccc76)c5)CC4)ccc3C2=O)C(=O)N1 (stereo not drawn) [Compound 95] | 50 to 70% | < 10 nM
N#CC1(COc2ccc(CN3CCC(c4ccc5c(c4)CN(C4CCC(=O)NC4=O)C5=O)CC3)cc2)CC1 (stereo not drawn) [Compound 45, 1-((4-((4-(2-(2,6-dioxopiperidin-3-yl)-1-oxoisoindolin-5-yl)piperidin-1-yl)methyl)phenoxy)methyl)cyclopropane-1-carbonitrile] | 50 to 70% | 10 to 30 nM
O=C1CCC(N2Cc3cc(C4(O)CCN(Cc5cccc(OCc6ccccc6)c5)CC4)ccc3C2=O)C(=O)N1 (stereo not drawn) [Compound 277] | > 70% | < 10 nM
O=C1CCC(N2Cc3cc(C4(O)CCN(Cc5ccc6ccc(-c7ccccc7)nc6c5)CC4)ccc3C2=O)C(=O)N1 (stereo not drawn) [Compound 236] | > 70% | < 10 nM
O=C1CCC(N2Cc3cc(C4(O)CCN(Cc5cccc6ccccc56)CC4)ccc3C2=O)C(=O)N1 (stereo not drawn) [Compound 204] | > 70% | < 10 nM
O=C1CCC(N2Cc3cc(C4CCN(Cc5ccnc(C(=O)Nc6ccccn6)c5)CC4)ccc3C2=O)C(=O)N1 (stereo not drawn) [Compound 130] | 50 to 70% | 10 to 30 nM
O=C1CCC(N2Cc3cc(C4CCN(Cc5ccc6c(c5)S(=O)(=O)N(c5ccccc5)C6)CC4)ccc3C2=O)C(=O)N1 (stereo not drawn) [Compound 80] | 30 to 50% | 30 to 150 nM
O=C1CCC(N2Cc3cc(C4CCN(Cc5ccc6c(c5)C(=O)N(c5ncccn5)CC6)CC4)ccc3C2=O)C(=O)N1 (stereo not drawn) [Compound 182] | 50 to 70% | 30 to 150 nM
O=C1CCC(N2Cc3cc(C4CCN(Cc5cccc6c5CN(c5ccccc5)C6=O)CC4)ccc3C2=O)C(=O)N1 (stereo not drawn) [Compound 113] | 30 to 50% | < 10 nM
O=C1CCC(N2Cc3cc(C4CCN(Cc5cccc(Nc6ccccn6)c5)CC4)ccc3C2=O)C(=O)N1 (stereo not drawn) [Compound 42, 3-(1-oxo-5-(1-(3-(pyridin-2-ylamino)benzyl)piperidin-4-yl)isoindolin-2-yl)piperidine-2,6-dione] | 50 to 70% | < 10 nM
O=C1CCC(N2Cc3cc(C4CCN(Cc5cccc(Nc6ncc(Cl)cn6)c5)CC4)ccc3C2=O)C(=O)N1 (stereo not drawn) [Compound 227] | 50 to 70% | < 10 nM
O=C1CCC(N2Cc3cc(C4(O)CCN(Cc5ccc(F)cc5)CC4)ccc3C2=O)C(=O)N1 (stereo not drawn) [Compound 258] | > 70% | < 10 nM
CP(C)(=O)c1cccc(Nc2cccc(CN3CCC(c4ccc5c(c4)CN(C4CCC(=O)NC4=O)C5=O)CC3)c2)c1 (stereo not drawn) [Compound 135, 3-(5-(1-(3-((3-(dimethylphosphoryl)phenyl)amino)benzyl)piperidin-4-yl)-1-oxoisoindolin-2-yl)piperidine-2,6-dione] | 50 to 70% | 10 to 30 nM
O=C1CCC(N2Cc3cc(C4CCN(Cc5ccc6c(c5)C(=O)N(c5ccccc5)CC6)CC4)ccc3C2=O)C(=O)N1 (stereo not drawn) [Compound 105, 3-(1-oxo-5-(1-((1-oxo-2-phenyl-1,2,3,4-tetrahydroisoquinolin-7-yl)methyl)piperidin-4-yl)isoindolin-2-yl)piperidine-2,6-dione] | 50 to 70% | < 10 nM
Cc1ccccc1CN1CCC(O)(c2ccc3c(c2)CN(C2CCC(=O)NC2=O)C3=O)CC1 (stereo not drawn) [Compound 265] | > 70% | < 10 nM
O=C1CCC(N2Cc3cc(C4(O)CCN(Cc5ccc6c(c5)C(=O)N(c5ccccc5O)C6)CC4)ccc3C2=O)C(=O)N1 (stereo not drawn) [Compound 219] | > 70% | < 10 nM
Cc1cnc(Nc2cccc(CN3CCC(c4ccc5c(c4)CN(C4CCC(=O)NC4=O)C5=O)CC3)c2)nc1 (stereo not drawn) [Compound 228] | 50 to 70% | 10 to 30 nM
O=C1CCC(N2Cc3cc(C4CCN(Cc5ccc(C(=O)Nc6ccccc6)cc5)CC4)ccc3C2=O)C(=O)N1 (stereo not drawn) [Compound 158] | 50 to 70% | 30 to 150 nM
N#Cc1ccccc1N1Cc2ccc(CN3CCC(c4ccc5c(c4)CN(C4CCC(=O)NC4=O)C5=O)CC3)cc2C1=O (stereo not drawn) [Compound 179] | 50 to 70% | < 10 nM
O=C1CCC(N2Cc3cc(C4CCN(Cc5ccc6c(c5)C(=O)N(c5cnsc5)C6)CC4)ccc3C2=O)C(=O)N1 (stereo not drawn) [Compound 222] | 50 to 70% | < 10 nM
O=C1CCC(N2Cc3cc(C4(O)CCN(Cc5ccc(OC(F)F)cc5)CC4)ccc3C2=O)C(=O)N1 (stereo not drawn) [Compound 247] | > 70% | < 10 nM
O=C1CCC(N2Cc3cc(C4CCN(Cc5cccnc5Oc5ccccc5)CC4)ccc3C2=O)C(=O)N1 (stereo not drawn) [Compound 119] | 30 to 50% | 30 to 150 nM
CC(c1ccccc1)N1CCC(O)(c2ccc3c(c2)CN(C2CCC(=O)NC2=O)C3=O)CC1 (stereo not drawn) [Compound 269] | > 70% | < 10 nM
O=C1CCC(N2Cc3cc(C4(O)CCN(Cc5ccnc(Nc6ccccc6)n5)CC4)ccc3C2=O)C(=O)N1 (stereo not drawn) [Compound 196] | > 70% | < 10 nM
